Measurements reported in PMC8037182, “Solvothermal Synthesis of Multiple Dihydropyrimidinones at a Time as Inhibitors of Eg5” (Molecules, 2021).
pIC50: −log10 of the molar value.

Key:
[1] = system: Caco-2 cell line; assay: Cytotoxicity MTS assay, Caco-2 cell line; type: cell-based; conditions: for OD490 Mean / OD490 Well 1 / OD490 Well 2 / OD490 Well 3: Caco-2 cell line
Method: (§1) The positive compounds (IC50 < 100 μM) obtained from the primary Eg5 motor protein ATPase assay were tested for antiproliferative activity in vitro against Caco-2 cell line, Hela cell line, L929 cell line and T24 cell line by performing MTS assay. Cells were introduced into 96-well plates at a density of 1000 cells per well. After 24 h incubation, the cells were exposed with compounds at final concentrations ranging from 0.5 to 100 µM for 24 h. DMSO was used at a final concentration of 0.025% as blank control, monastrol was used as the positive control. Then 20 µL (CellTiter 96® AQueous One Solution Promega, Madison, WI, USA) reagent was added in each well. After 2 h at 37 °C in a 80% humidified, 5% CO2 atmosphere, the absorbance at 490 nm was recorded using a microplate reader (BIO-RAD iMark^TM). The results were obtained in three independent duplicate experiments. The primary data were shown in Supplementary Materials Tables S4–S7. The IC50 values for these compounds were calculated from a non-linear regression graph plotted between the percentage of cell viability and concentration with SPSS17.0 software.

[2] = system: Hela cell line; assay: Cytotoxicity MTS assay, Hela cell line; type: cell-based; conditions: for OD490 value, Mean / OD490 value, Well 1 / OD490 value, Well 2 / OD490 value, Well 3: Hela cell line, MTS
Method: as §1

Compound: CCOC(=O)c1c(C2NC(=O)NC(C)=C2C(=O)Nc2ccccc2C)[nH]c(C(=O)OC)c1C (centres unmarked) [D2]
- OD490 Mean ([1]; 0.5μM, first assay): 0.6270
- OD490 Well 1 ([1]; 0.5μM, first assay): 0.5887
- OD490 Well 2 ([1]; 0.5μM, first assay): 0.6362
- OD490 Well 3 ([1]; 0.5μM, first assay): 0.6562
- OD490 Mean ([1]; 0.5μM, second assay): 0.7070
- OD490 Well 1 ([1]; 0.5μM, second assay): 0.7084
- OD490 Well 2 ([1]; 0.5μM, second assay): 0.7002
- OD490 Well 3 ([1]; 0.5μM, second assay): 0.7123
- OD490 Mean ([1]; 0.5μM, third assay): 0.6851
- OD490 Well 1 ([1]; 0.5μM, third assay): 0.4885
- OD490 Well 2 ([1]; 0.5μM, third assay): 0.8254
- OD490 Well 3 ([1]; 0.5μM, third assay): 0.7414
- OD490 Mean ([1]; 1μM, first assay): 0.6349
- OD490 Well 1 ([1]; 1μM, first assay): 0.5288
- OD490 Well 2 ([1]; 1μM, first assay): 0.6946
- OD490 Well 3 ([1]; 1μM, first assay): 0.6813
- OD490 Mean ([1]; 1μM, second assay): 0.7459
- OD490 Well 1 ([1]; 1μM, second assay): 0.7813
- OD490 Well 2 ([1]; 1μM, second assay): 0.6848
- OD490 Well 3 ([1]; 1μM, second assay): 0.7716
- OD490 Mean ([1]; 1μM, third assay): 0.6746
- OD490 Well 1 ([1]; 1μM, third assay): 0.6245
- OD490 Well 2 ([1]; 1μM, third assay): 0.7010
- OD490 Well 3 ([1]; 1μM, third assay): 0.6982
- OD490 Mean ([1]; 10μM, first assay): 0.6116
- OD490 Well 1 ([1]; 10μM, first assay): 0.5314
- OD490 Well 2 ([1]; 10μM, first assay): 0.6140
- OD490 Well 3 ([1]; 10μM, first assay): 0.6893
- OD490 Mean ([1]; 10μM, second assay): 0.7407
- OD490 Well 1 ([1]; 10μM, second assay): 0.7116
- OD490 Well 2 ([1]; 10μM, second assay): 0.7395
- OD490 Well 3 ([1]; 10μM, second assay): 0.771
- OD490 Mean ([1]; 10μM, third assay): 0.6639
- OD490 Well 1 ([1]; 10μM, third assay): 0.7421
- OD490 Well 2 ([1]; 10μM, third assay): 0.5621
- OD490 Well 3 ([1]; 10μM, third assay): 0.6874
- OD490 Mean ([1]; 25μM, first assay): 0.6114
- OD490 Well 1 ([1]; 25μM, first assay): 0.5587
- OD490 Well 2 ([1]; 25μM, first assay): 0.6570
- OD490 Well 3 ([1]; 25μM, first assay): 0.6185
- OD490 Mean ([1]; 25μM, second assay): 0.6775
- OD490 Well 1 ([1]; 25μM, second assay): 0.5825
- OD490 Well 2 ([1]; 25μM, second assay): 0.7137
- OD490 Well 3 ([1]; 25μM, second assay): 0.7364
- OD490 Mean ([1]; 25μM, third assay): 0.6183
- OD490 Well 1 ([1]; 25μM, third assay): 0.6214
- OD490 Well 2 ([1]; 25μM, third assay): 0.6325
- OD490 Well 3 ([1]; 25μM, third assay): 0.6010
- OD490 Mean ([1]; 50μM, first assay): 0.5907
- OD490 Well 1 ([1]; 50μM, first assay): 0.6013
- OD490 Well 2 ([1]; 50μM, first assay): 0.6084
- OD490 Well 3 ([1]; 50μM, first assay): 0.5625
- OD490 Mean ([1]; 50μM, second assay): 0.5350
- OD490 Well 1 ([1]; 50μM, second assay): 0.5688
- OD490 Well 2 ([1]; 50μM, second assay): 0.5038
- OD490 Well 3 ([1]; 50μM, second assay): 0.5324
- OD490 Mean ([1]; 50μM, third assay): 0.5761
- OD490 Well 1 ([1]; 50μM, third assay): 0.6025
- OD490 Well 2 ([1]; 50μM, third assay): 0.5936
- OD490 Well 3 ([1]; 50μM, third assay): 0.5321
- OD490 Mean ([1]; 100μM, first assay): 0.4815
- OD490 Well 1 ([1]; 100μM, first assay): 0.4762
- OD490 Well 2 ([1]; 100μM, first assay): 0.4852
- OD490 Well 3 ([1]; 100μM, first assay): 0.4831
- OD490 Mean ([1]; 100μM, second assay): 0.5288
- OD490 Well 1 ([1]; 100μM, second assay): 0.5278
- OD490 Well 2 ([1]; 100μM, second assay): 0.5253
- OD490 Well 3 ([1]; 100μM, second assay): 0.5332
- OD490 Mean ([1]; 100μM, third assay): 0.5185
- OD490 Well 1 ([1]; 100μM, third assay): 0.5637
- OD490 Well 2 ([1]; 100μM, third assay): 0.4985
- OD490 Well 3 ([1]; 100μM, third assay): 0.4932
- pIC50 ([1]; MTS assay, 24 h exposure): 3.93
- OD490 value, Mean ([2]; 0.5μM, first assay): 2.6241
- OD490 value, Well 1 ([2]; 0.5μM, first assay): 2.6512
- OD490 value, Well 2 ([2]; 0.5μM, first assay): 2.7230
- OD490 value, Well 3 ([2]; 0.5μM, first assay): 2.4982
- OD490 value, Mean ([2]; 0.5μM, second assay): 2.6365
- OD490 value, Well 1 ([2]; 0.5μM, second assay): 2.7038
- OD490 value, Well 2 ([2]; 0.5μM, second assay): 2.6687
- OD490 value, Well 3 ([2]; 0.5μM, second assay): 2.5371
- OD490 value, Mean ([2]; 0.5μM, third assay): 2.6753
- OD490 value, Well 1 ([2]; 0.5μM, third assay): 2.5959
- OD490 value, Well 2 ([2]; 0.5μM, third assay): 2.8645
- OD490 value, Well 3 ([2]; 0.5μM, third assay): 2.5656
- OD490 value, Mean ([2]; 1μM, first assay): 2.5821
- OD490 value, Well 1 ([2]; 1μM, first assay): 2.5465
- OD490 value, Well 2 ([2]; 1μM, first assay): 2.6265
- OD490 value, Well 3 ([2]; 1μM, first assay): 2.5734
- OD490 value, Mean ([2]; 1μM, second assay): 2.6167
- OD490 value, Well 1 ([2]; 1μM, second assay): 2.6874
- OD490 value, Well 2 ([2]; 1μM, second assay): 2.5987
- OD490 value, Well 3 ([2]; 1μM, second assay): 2.5641
- OD490 value, Mean ([2]; 1μM, third assay): 2.6782
- OD490 value, Well 1 ([2]; 1μM, third assay): 2.5645
- OD490 value, Well 2 ([2]; 1μM, third assay): 2.7848
- OD490 value, Well 3 ([2]; 1μM, third assay): 2.6854
- OD490 value, Mean ([2]; 10μM, first assay): 2.6025
- OD490 value, Well 1 ([2]; 10μM, first assay): 2.4718
- OD490 value, Well 2 ([2]; 10μM, first assay): 2.7280
- OD490 value, Well 3 ([2]; 10μM, first assay): 2.6077
- OD490 value, Mean ([2]; 10μM, second assay): 2.7525
- OD490 value, Well 1 ([2]; 10μM, second assay): 2.8301
- OD490 value, Well 2 ([2]; 10μM, second assay): 2.6874
- OD490 value, Well 3 ([2]; 10μM, second assay): 2.7401
- OD490 value, Mean ([2]; 10μM, third assay): 2.6780
- OD490 value, Well 1 ([2]; 10μM, third assay): 2.5659
- OD490 value, Well 2 ([2]; 10μM, third assay): 2.6898
- OD490 value, Well 3 ([2]; 10μM, third assay): 2.7784
- OD490 value, Mean ([2]; 25μM, first assay): 2.6414
- OD490 value, Well 1 ([2]; 25μM, first assay): 2.4669
- OD490 value, Well 2 ([2]; 25μM, first assay): 2.6653
- OD490 value, Well 3 ([2]; 25μM, first assay): 2.7919
- OD490 value, Mean ([2]; 25μM, second assay): 2.6474
- OD490 value, Well 1 ([2]; 25μM, second assay): 2.8835
- OD490 value, Well 2 ([2]; 25μM, second assay): 2.4699
- OD490 value, Well 3 ([2]; 25μM, second assay): 2.5888
- OD490 value, Mean ([2]; 25μM, third assay): 2.6061
- OD490 value, Well 1 ([2]; 25μM, third assay): 2.5656
- OD490 value, Well 2 ([2]; 25μM, third assay): 2.6632
- OD490 value, Well 3 ([2]; 25μM, third assay): 2.5894
- OD490 value, Mean ([2]; 50μM, first assay): 2.6499
- OD490 value, Well 1 ([2]; 50μM, first assay): 2.7237
- OD490 value, Well 2 ([2]; 50μM, first assay): 2.5642
- OD490 value, Well 3 ([2]; 50μM, first assay): 2.6617
- OD490 value, Mean ([2]; 50μM, second assay): 2.5211
- OD490 value, Well 1 ([2]; 50μM, second assay): 2.6654
- OD490 value, Well 2 ([2]; 50μM, second assay): 2.5656
- OD490 value, Well 3 ([2]; 50μM, second assay): 2.3324
- OD490 value, Mean ([2]; 50μM, third assay): 2.6330
- OD490 value, Well 1 ([2]; 50μM, third assay): 2.6547
- OD490 value, Well 2 ([2]; 50μM, third assay): 2.5655
- OD490 value, Well 3 ([2]; 50μM, third assay): 2.6788
- OD490 value, Mean ([2]; 100μM, first assay): 1.9886
- OD490 value, Well 1 ([2]; 100μM, first assay): 2.0164
- OD490 value, Well 2 ([2]; 100μM, first assay): 1.9699
- OD490 value, Well 3 ([2]; 100μM, first assay): 1.9794
- OD490 value, Mean ([2]; 100μM, second assay): 2.0267
- OD490 value, Well 1 ([2]; 100μM, second assay): 1.8863
- OD490 value, Well 2 ([2]; 100μM, second assay): 1.9925
- OD490 value, Well 3 ([2]; 100μM, second assay): 2.2014
- OD490 value, Mean ([2]; 100μM, third assay): 2.0032
- OD490 value, Well 1 ([2]; 100μM, third assay): 1.9987
- OD490 value, Well 2 ([2]; 100μM, third assay): 2.0123
- OD490 value, Well 3 ([2]; 100μM, third assay): 1.9986
- pIC50 ([2]; MTS assay, 24 h exposure): < 3.82
